The values below come from patent US9181262B2, “Crystalline forms of a dipeptidyl peptidase-IV inhibitors” (Merck Sharp & Dohme Corp, priority 2011, dated 2015).

Series [1] is described as follows: relative stability of crystalline forms (turnover experiments). Type of series: physicochemical. The settings on record: for relative phase stability of the crystalline form: relationship between polymorphs of Compound I. The procedure:
Crystalline Form II was produced by re-crystallization of Form I in isopropyl acetate and heptane 1:1 at room temperature. Form II was characterized using XRPD, ssNMR, DSC, TGA and IR. […] 17 hr, IPAc 60° C. for one day, H2O 60° C. over two weeks, three days, NMP-water 1-1 35° C. over three days.

Series [2] is described as follows: solubility in water. The series is classed as physicochemical. The settings on record: crystalline forms of Compound I (anhydrous free base).

In brackets after ≈: the same amount, converted by molar mass.

On to `CS(=O)(=O)n1cc2c(n1)CN([C@H]1CO[C@H](c3cc(F)ccc3F)[C@@H](N)C1)C2` [Form III, (2R,3S,5R)-2-(2,5-Difluorophenyl)-5-[2-(methylsulfonyl)-2,6-dihydropyrrolo[3,4-c]pyrazol-5(4H)-yl]tetrahydro-2H-pyran-3-amine], for which the “relative phase stability of the crystalline form” value (“relative phase stability” below) in series [1] is “metastable to Form I and II”. Turning to `CS(=O)(=O)n1cc2c(n1)CN([C@H]1CO[C@H](c3cc(F)ccc3F)[C@@H](N)C1)C2` [Compound I, (2R,3S,5R)-2-(2,5-Difluorophenyl)-5-[2-(methylsulfonyl)-2,6-dihydropyrrolo[3,4-c]pyrazol-5(4H)-yl]tetrahydro-2H-pyran-3-amine], in series [2], the solubility (commonly the dissolved amount per volume that the medium holds) was ~2000 µg/mL (≈ 5.02 mM). In the case of `CS(=O)(=O)n1cc2c(n1)CN([C@H]1CO[C@H](c3cc(F)ccc3F)[C@@H](N)C1)C2` [Form IV, (2R,3S,5R)-2-(2,5-Difluorophenyl)-5-[2-(methylsulfonyl)-2,6-dihydropyrrolo[3,4-c]pyrazol-5(4H)-yl]tetrahydro-2H-pyran-3-amine], the “relative phase stability” value in series [1] is “metastable to Form I and II”. For the compound `CS(=O)(=O)n1cc2c(n1)CN([C@H]1CO[C@H](c3cc(F)ccc3F)[C@@H](N)C1)C2` [Form II, (2R,3S,5R)-2-(2,5-Difluorophenyl)-5-[2-(methylsulfonyl)-2,6-dihydropyrrolo[3,4-c]pyrazol-5(4H)-yl]tetrahydro-2H-pyran-3-amine], the “conversion of Form II into Form I” value in series [1] (turnover experiments with 50-50 seed: DCM-Heptane 25° C., IPAc 25° C. and 60° C., H2O 60° C., NMP-water 1-1 35° C.) was “slow but observed in all turnover experiments”. Regarding `CS(=O)(=O)n1cc2c(n1)CN([C@H]1CO[C@H](c3cc(F)ccc3F)[C@@H](N)C1)C2` [Form I, (2R,3S,5R)-2-(2,5-Difluorophenyl)-5-[2-(methylsulfonyl)-2,6-dihydropyrrolo[3,4-c]pyrazol-5(4H)-yl]tetrahydro-2H-pyran-3-amine], the “relative phase stability” value in series [1] is “most stable phase above 13 °C”.
